Measurements reported in publication PMC3338516 (PLoS ONE, 2012).
Where two headings read alike, the source gives them in different places. Ends that are not written are not given here.

Tests used:
[1] = molecular target: T1, HLA-B0702 (Homo sapiens, UniProt P01889); experiment: Competition-based cellular peptide binding assay, HLA-B0702; conditions: for IC50: mild-acid-treated B-LCLs, 150 nM fluorescent reference peptide […], overnight 4°C, flow cytometry, mean of two independent experiments
T1 construct: endogenous in cells
Experimental: (§1) To test binding affinity of eluted and predicted peptides to HLA-I, competition-based cellular peptide binding assays were performed as described earlier. In short, B-LCLs were treated with a mild acid (1∶1 mixture of 0.263M C6H8O7*H2O and 0.126M Na2HPO4*2H2O) for 1 min to remove the naturally HLA-I bound peptides. Cells were buffered with cold IMDM containing 2% FCS immediately thereafter and resuspended at a concentration of 4×10^5 cells/ml in 2% FCS and 1.5 µg/ml human β2m (Sigma-Aldrich). Then, 4×10^4 cells/well were incubated with 150 nM of fluorescently labeled reference peptide and a serial dilution of one of the eluted or predicted peptides. The following HLA-I allele-restricted reference peptides were used: […] (for HLA-A0201), […] (for HLA-A0301), […] (for HLA-B0702) and […] (for HLA-B4002), each containing a fluorescent label bound to the cysteine residue. After overnight incubation at 4°C, cells were washed twice in PBS supplemented with 1% BSA and fixed in 0.5% paraformaldehyde. Cells were analyzed with CellQuestPro or FlowJo software (Tree Star, Ashland, OR, USA). IC50 values were defined with GraphPad Prism 4.02 (GraphPad Software Inc., La Jolla, USA) using the following formula: Y = Bmax*X/(IC50+X), in which Bmax is the maximal binding capacity of the positive control peptide, X the concentration of peptide tested and IC50 the concentration of peptide needed to reach half-maximal binding.

[2] = molecular target: T2, HLA-A0201 (Homo sapiens, UniProt P04439, D140Y/D185E/D98H/E176V/E277Q/G131W/G231S/I119V/I121R/I166T/I218V/L300P/L318F/N151K/N90K/P208A/P217A/Q86G/Q94H/R138H/R169H/T345S); experiment: Competition-based cellular peptide binding assay, HLA-A0201; conditions: for IC50: mild-acid-treated B-LCLs, 150 nM fluorescent reference peptide […], overnight 4°C, flow cytometry, mean of two independent experiments, read-out: HLA-A201 IC50
T2 construct: endogenous in cells
Experimental: To test binding affinity of eluted and predicted peptides to HLA-I, competition-based cellular peptide binding assays were performed as described earlier. […] Cells were buffered with cold IMDM containing 2% FCS immediately thereafter and resuspended at a concentration of 4×10^5 cells/ml in 2% FCS and 1.5 µg/ml human β2m (Sigma-Aldrich). […] The following HLA-I allele-restricted reference peptides were used: […] (for HLA-B0702) and […] (for HLA-B4002), each containing a fluorescent label bound to the cysteine residue. After overnight incubation at 4°C, cells were washed twice in PBS supplemented with 1% BSA and fixed in 0.5% paraformaldehyde. Cells were analyzed with CellQuestPro or FlowJo software (Tree Star, Ashland, OR, USA).

[3] = molecular target: T3, HLA-B4002 (Homo sapiens, UniProt P01889, A65T/A93T/A95T/D138N/D201E/D98Y/E176V/E204Q/E69K/K202T/N87E/Q56L/Q94N/R180L/S48T/Y33H/Y91S); conditions: Figure 3 legend; positive control peptide; cited from earlier work
Description: (§2) (A0201 peptide), […] (A0301 peptide), SPSVDK ...

[4] = molecular target: T3, HLA-B4002; experiment: Competition-based cellular peptide binding assay, HLA-B4002; conditions: Table 2; mild-acid-treated B-LCLs, 150 nM fluorescent reference peptide […], overnight 4°C, flow cytometry; mean of two independent experiments
Experimental: as §1

[5] = molecular target: T4, HLA-A0301 (Homo sapiens, UniProt P04439); experiment: Competition-based cellular peptide binding assay, HLA-A0301; conditions: Table 2; mild-acid-treated B-LCLs, 150 nM fluorescent reference peptide […], overnight 4°C, flow cytometry; mean of two independent experiments
T4 construct: endogenous in cells
Experimental: as §1

[6] = molecular target: T1, HLA-B0702; conditions: Figure 3 legend; positive control peptide; cited from earlier work
Description: as §2

[7] = Table 1, class by IC50 cut-off values
[8] = Table 1, concentration for half maximal competition

Sequence	IC50 ([1]; Table 1) [µM]	IC50 [2, 8] [µM]	IC50 ([1]; Table 2) [µM]	IC50 ([2]; Table 2) [µM]	IC50 [4] [µM]	IC50 [5] [µM]	other results
ETIDWKVFESW [Peptide 5]	> 100	> 100	–	–	–	–	HLA-B0702 Affinity [1, 7]: – (no binding, >100 µM); HLA-A201 Affinity [2, 7]: – (no binding, >100 µM)
GEFGGFGSV	–	–	–	–	–	–	IC50 [3]: 0.2 µM
KMRMATPLL	–	–	0.47	10.9	0.44	6.43	–
LLAGQATT [Peptide 2]	40.9	> 100	–	–	–	–	–
LPMGALPQGPM [Peptide 4]	0.41	> 100	–	–	–	–	–
RMATPLLMQA	–	–	7.75	8.08	2.05	2.45	–
RMATPLLMQAL [RMATPLLMQAL]	–	–	1.85	4.49	0.48	4.28	–
RMATPLLMQALPM [Peptide 3]	0.36	13.7	–	–	3.43	3.35	–
SPSVDKARAEL	–	–	–	–	–	–	IC50 [6]: 0.7 µM
SRGALYTGFSIL [Peptide 1]	1.39	10.9	–	–	–	–	–
